Key:
G. vaginalis G19 = assay: anti-Gardnerella activity of film dispersions, micromethod (CSLI M45); assay type: cell-based, Gardnerella vaginalis; set-up: key: −: absence of bacterial growth; +: presence; conditions: lactic acid used for the preparation of formulations (control)
Protocol: (§1) In an embodiment, the antibacterial activity of chitosan films was tested against two Gardnerella vaginalis clinical strains, this being the pathogen most frequently associated with vaginal bacteriosis. […] The antibacterial activity was tested according to the CSLI M45 standard. Controls were performed with VFS and the lactic acid used for the preparation of formulations, as well as growth controls of strains and sterility of the culture medium used. All tests were performed in duplicate. Plates were observed concerning the presence or absence of bacterial growth after 48 h of growth at 37° C. Table 3 represents the results obtained indicating the marked activity of the film since no bacterial growth occurs for 1:4 dilution (second sequential dilution) of the film dispersion in 3 mL of water and VFS. […] The test was performed after incubation of the wells containing the tissue with maintenance medium (commercial), at 37° C. with 5% CO2 atmosphere, in accordance with the recommendations of the supplier. After the incubation period, 17 mg of film were placed over the tissue in each well and added of […] of PBS to allow for dispersion. After the 12 h incubation period, cellular viability was assessed by the MTT test (n=2 wells) and histological analysis was performed. […] Since this formulations was developed to treat an infection, being toxic to bacteria, it wouldn't be expected to totally innocuous for the human tissue. Biocompatibility of chitosan with human tissue has been described and the lactic acid used in this formulation was selected due to the natural occurrence in the vagina. On the other hand, the fact that this formulation is intended for short term treatments, in an altered vaginal environment due to the presence of pathogens, can influence the final effect of the formulation in the tissue of the host.

G. vaginalis G71 = assay: as above; assay type: cell-based, Gardnerella vaginalis; set-up: key: −: absence of bacterial growth; +: presence; conditions: lactic acid used for the preparation of formulations (control)
Protocol: as §1

Measured: bacterial growth

CC(O)C(=O)O (stereo not shown) [Lactic acid, lactic acid]
−: G. vaginalis G19; dilution 1:2 | G. vaginalis G19; dilution 1:4 | G. vaginalis G71; dilution 1:2 | G. vaginalis G71; dilution 1:4

From patent US20170224749A1, “VAGINAL COMPOSITION FOR THE TREATMENT OF UROGENITAL INFECTIONS” (HPRD - HEALTH PRODUCTS RESEARCH AND DEVELOPMENT LDA, priority 2014, published 2017)
